One series deals with Adenosine A2 receptor (Rattus norvegicus, UniProt P29276+P30543).
In another series the target is T1, Adenosine receptor A1 (Rattus norvegicus, UniProt P25099).
T1 sequence (P25099 whole entry): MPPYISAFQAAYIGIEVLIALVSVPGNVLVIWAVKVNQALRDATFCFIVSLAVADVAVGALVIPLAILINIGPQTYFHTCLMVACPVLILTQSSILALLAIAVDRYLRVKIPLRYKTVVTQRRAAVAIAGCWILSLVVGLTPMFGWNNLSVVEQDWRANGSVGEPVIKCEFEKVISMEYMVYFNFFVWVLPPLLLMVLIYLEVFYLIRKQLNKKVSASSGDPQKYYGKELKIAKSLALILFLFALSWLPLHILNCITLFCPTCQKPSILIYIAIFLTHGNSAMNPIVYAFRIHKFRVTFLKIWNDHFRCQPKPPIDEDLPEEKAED

Series [1] can be described thus: Lipophilicity value was evaluated. Format: physicochemical. To be noted: octanol/water.

The structures appear in SMILES notation.

Drawing on ChEMBL document CHEMBL1122939, “N6-cycloalkyladenosines. Potent, A1-selective adenosine agonists” (J Med Chem, 1985), this text covers Ki and Log k for ten compounds.

Usually Ki stands for the equilibrium dissociation constant of an inhibitor or competing ligand from its target.

Description for Adenosine A2 receptor: Displacement of [3H]-NECA from adenosine A2 receptor of rat striatal membrane

In the case of `OC[C@H]1O[C@@H](n2cnc3c(NC4CC4)ncnc32)[C@H](O)[C@@H]1O`, the Ki is 1240 nM at Adenosine A2 receptor and 319 nM on Adenosine receptor A1. Also, the Log k in series [1] worked out at 0.53.
Consider `OC[C@H]1O[C@@H](n2cnc3c(NC4CCCCCCC4)ncnc32)[C@H](O)[C@@H]1O`, for which the Ki at Adenosine A2 receptor was 2450 nM; at Adenosine receptor A1, 4.03 nM. The compound also showed a Log k in series [1] of 2.9.
For `OC[C@H]1O[C@@H](n2cnc3c(NC4CCCCCC4)ncnc32)[C@H](O)[C@@H]1O` the same measures were 1690 nM, 2.79 nM and 2.4.
On Adenosine receptor A1, `Nc1nc(Cl)nc2c1ncn2[C@@H]1O[C@H](CO)[C@@H](O)[C@H]1O` returned a Ki of 8.74 nM.
The compound `OC[C@H]1O[C@@H](n2cnc3c(NC4CCCCC4)ncnc32)[C@H](O)[C@@H]1O` displayed a Log k in series [1] of 1.6.
As for `OC[C@H]1O[C@@H](n2cnc3c(NC4CCC4)ncnc32)[C@H](O)[C@@H]1O`, the Ki at Adenosine A2 receptor came to 263 nM; at Adenosine receptor A1 it was 0.777 nM. In series [1], this compound displayed a Log k of 1.22.
For `OC[C@H]1OC(n2cnc3c(NC4CCCCCCCCC4)ncnc32)[C@H](O)[C@@H]1O` (some centres undefined) the same measures were 5190 nM, 100 nM and 3.62.
With `OC[C@H]1OC(n2cnc3c(NC4CCCCCCCCCCC4)ncnc32)[C@H](O)[C@@H]1O` (some centres undefined), the Ki at Adenosine A2 receptor came to 47700 nM; on Adenosine receptor A1, 5390 nM. The compound also yielded a Log k in series [1] of 4.52.
As to `Cn1c(=O)[nH]c2c(ncn2C2O[C@H](CO)[C@@H](O)[C@H]2O)c1=N` (some centres undefined), the Ki was found to be 3250 nM at Adenosine A2 receptor and 144 nM on Adenosine receptor A1.
Compound `OC[C@H]1O[C@@H](n2cnc3c(NC4CCCC4)ncnc32)[C@H](O)[C@@H]1O` [N6-CYCLOPENTYLADENOSINE] had a Ki at Adenosine A2 receptor of 462 nM. This compound yielded a Log k in series [1] of 1.56.
